Structures are written as SMILES. Values after ≈ are worked out from the molar mass of the structure shown.

One data set concerns E. coli ATCC8739. Kind of data set: MIC assay. Format: cell-based, Escherichia coli. The settings on record: two-fold serial dilutions in liquid media, n = 2–3; for MIC: Escherichia coli, ATCC8739.
Data set [1] can be described thus: Cytotoxic assay (resazurin). The settings on record: human, HepG2 liver cells.
Data set [2] in a line: Cytotoxic assay (resazurin). The settings on record: human, BEAS-2B normal lung epithelial cells.
The next data set relates to C. albicans DSM10697. Briefly: MIC assay. Format: cell-based, Candida albicans. The settings on record: two-fold serial dilutions in liquid media, n = 2–3; for MIC: Candida albicans, DSM10697.
The next data set has as its system S. aureus ATCC6538P. Kind of data set: MIC assay. The class given is cell-based, Staphylococcus aureus. The settings on record: Staphylococcus aureus, ATCC6538P; two-fold serial dilutions in liquid media; n = 2–3.
The nature of data set [3]: Cytotoxic assay (resazurin). The settings on record: human, IMR-90 normal lung fibroblasts.
The next data set has as its system M. smegmatis ATCC700084. Briefly: MIC assay (REMA). Format: cell-based, Mycobacterium smegmatis. The settings on record: Mycolicibacterium smegmatis, ATCC700084, REMA microdilution, n = 2–3.
Data set [4] can be described thus: Cytotoxic assay (resazurin). The settings on record: human, Caco-2.
Data set [5] is described as follows: Cytotoxic assay (resazurin). The settings on record: human, HaCaT normal epidermal keratinocytes.
Another data set has as its system B. subtilis ATCC6633. Kind of data set: MIC assay. Format: cell-based, Bacillus subtilis. The settings on record: Bacillus subtilis, ATCC6633; two-fold serial dilutions in liquid media; n = 2–3.
Data set [6] can be described thus: Cytotoxic assay, summary over the six human cell types. The settings on record: human, 48 h exposure.
Data set [7] relates to human cells (A498, BEAS-2B, Caco-2, HaCaT, HepG2, IMR-90). The data set is described as above. The settings on record: for Highest TI: highest CC50 on human cells divided by MIC on S. aureus; for Lowest TI: lowest CC50 on human cells divided by MIC on S. aureus.
A short description of data set [8]: Cytotoxic assay (resazurin). The settings on record: human, A498 kidney epithelial cells.
The next data set deals with P. aeruginosa ATCC9027. Briefly: MIC assay. Format: cell-based, Pseudomonas aeruginosa. The settings on record: Pseudomonas aeruginosa, ATCC9027; two-fold serial dilutions in liquid media; n = 2–3.
The subject of data set [9] is B. subtilis, S. aureus, E. coli, P. aeruginosa, M. smegmatis, C. albicans. Kind of data set: First MIC screening, summary over the species of Table 2. The class given is cell-based. The settings on record: discussion of the first screening.
Where [10] appears, read: Highest CC50, highest of the six human cell types.
Where [11] appears, read: Lowest CC50, lowest of the six human cell types.
[12] abbreviates: Mean CC50, mean over the six human cell types.

Take `Nc1ccc2c(c1)C(=O)/C(=C/c1cccc(OCc3ccccc3)c1)O2` [Compound 12, (Z)-5-amino-2-(3-(benzyloxy)benzylidene)benzofuran-3(2H)-one]: the melting point worked out at 132.6 °C. For the same molecule, in the data set with E. coli ATCC8739, the MIC was over 100 µM and the “MIC E. coli ATCC8739” value was “inactive”. The molecule further gave a half-maximal cytotoxic concentration (CC50) at 48 h in data set [1] of 343 µM. The same molecule came in with a 50% cytotoxic concentration (CC50) at 48 h in data set [2] of 74.6 µM. In addition, in the data set with C. albicans DSM10697, the MIC is over 100 µM and the “MIC C. albicans DSM10697” value is “inactive”. For the same molecule, in the data set on S. aureus ATCC6538P, 100 µM (≈ 34.3 µg/mL) was the least that counted as inhibitory (MIC). In data set [3], this molecule registered a CC50 at 48 h of 42.4 µM. The same molecule gave a minimum inhibitory concentration (MIC) in the data set on M. smegmatis ATCC700084 of 50 µM (≈ 17.2 µg/mL). In data set [4], this molecule displayed a cytotoxic concentration (CC50) at 48 h of 112 µM. In addition, it took 51.3 µM to reach half-maximal cytotoxicity in data set [5] (CC50 at 48 h). In addition, inhibition of growth against B. subtilis ATCC6633 (MIC) required 25 µM (≈ 8.58 µg/mL). Moreover, the midpoint of cytotoxicity in [6] (setting [10]), the CC50 at 48 h, lay at 343 µM. Moreover, the CC50 at 48 h in data set [6] (setting [11]) was 42.4 µM. The CC50 at 48 h in data set [6] (setting [12]) was found to be 129 µM. In [7], the “Highest TI” value is recorded as 3.4 and the “Lowest TI” value came to 0.4. In data set [8], this molecule returned a cytotoxic concentration (CC50) at 48 h of 152 µM. The molecule also yielded a minimal inhibitory concentration (MIC) against P. aeruginosa ATCC9027 of over 100 µM.
`CC(=O)Nc1ccc2c(c1)C(=O)/C(=C/c1ccc(Oc3ccccc3)cc1)O2` [Compound 15, (Z)-N-(3-oxo-2-(4-phenoxybenzylidene)-2,3-dihydrobenzofuran-5-yl)acetamide] returned a melting point of 213.5 °C. In the data set on E. coli ATCC8739, the MIC was over 100 µM and the “MIC E. coli ATCC8739” value was “inactive”. The molecule also had a half-maximal cytotoxic concentration (CC50) at 48 h in data set [1] of over 500 µM. This molecule also registered a half-maximal cytotoxic concentration (CC50) at 48 h in data set [2] of 110 µM. Also, in the data set with C. albicans DSM10697, the minimum inhibitory concentration (MIC) is over 100 µM and the “MIC C. albicans DSM10697” value is “inactive”. In the data set on S. aureus ATCC6538P, this molecule showed a minimal inhibitory concentration (MIC) of 100 µM (≈ 37.1 µg/mL). The same molecule yielded a 50% cytotoxic concentration (CC50) at 48 h in [3] of over 500 µM. Besides, the minimal inhibitory concentration (MIC) in the data set on M. smegmatis ATCC700084 came to 50 µM (≈ 18.6 µg/mL). Further, it took 137 µM to reach half-maximal cytotoxicity in data set [4] (CC50 at 48 h). Further, the CC50 at 48 h in [5] is over 500 µM. The same molecule registered an MIC with B. subtilis ATCC6633 of 50 µM (≈ 18.6 µg/mL). The CC50 at 48 h in data set [6] (setting [10]) was over 500 µM. In data set [6] (setting [11]), the cytotoxic concentration (CC50) at 48 h was 110 µM. Besides, in data set [7], the “Highest TI” value is over 5 and the “Lowest TI” value was determined as 1.0. Further, half-maximal cytotoxicity in data set [8] (CC50 at 48 h) was put at 146 µM. For the same molecule, the MIC in the data set with P. aeruginosa ATCC9027 was over 100 µM.
`Nc1ccc2c(c1)C(=O)/C(=C/c1cccc(Oc3ccccc3)c1)O2` [Compound 16, (Z)-5-amino-2-(3-phenoxybenzylidene)benzofuran-3(2H)-one]: the melting point turned out to be 145.6 °C. Further, in the data set with E. coli ATCC8739, the minimum inhibitory concentration (MIC) was determined as 25 µM (≈ 8.23 µg/mL). This molecule displayed a CC50 at 48 h in data set [1] of 398 µM. Half-maximal cytotoxicity in [2] (CC50 at 48 h) was put at 130 µM. Moreover, in the data set with C. albicans DSM10697, the minimal inhibitory concentration (MIC) is over 100 µM and the “MIC C. albicans DSM10697” value was “inactive”. For the same molecule, the minimum inhibitory concentration (MIC) with S. aureus ATCC6538P stood at 25 µM (≈ 8.23 µg/mL). The molecule further came in with a 50% cytotoxic concentration (CC50) at 48 h in data set [3] of 116 µM. Further, the minimal inhibitory concentration (MIC) in the data set with M. smegmatis ATCC700084 came to 50 µM (≈ 16.5 µg/mL). This molecule also displayed a half-maximal cytotoxic concentration (CC50) at 48 h in [4] of 132 µM. Moreover, the midpoint of cytotoxicity in data set [5], the CC50 at 48 h, lay at 80.4 µM. In addition, the minimum inhibitory concentration (MIC) in the data set on B. subtilis ATCC6633 worked out at 25 µM (≈ 8.23 µg/mL). In addition, the CC50 at 48 h in [6] (setting [10]) was 452 µM. In data set [6] (setting [11]), this molecule displayed a CC50 at 48 h of 80.4 µM. Besides, the midpoint of cytotoxicity in data set [6] (setting [12]), the CC50 at 48 h, lay at 218 µM. Besides, in data set [7], the “Highest TI” value stood at 18.0 and the “Lowest TI” value turned out to be 3.2. Besides, the CC50 at 48 h in data set [8] was 452 µM. The molecule further returned a minimum inhibitory concentration (MIC) against P. aeruginosa ATCC9027 of over 100 µM.
For the molecule `CC(=O)Nc1ccc2c(c1)C(=O)/C(=C/c1ccccc1OC(C)C)O2` [Compound 18, (Z)-N-(2-(2-isopropoxybenzylidene)-3-oxo-2,3-dihydrobenzofuran-5-yl)acetamide], the MIC against E. coli ATCC8739, against C. albicans DSM10697, in the data set on S. aureus ATCC6538P, in the data set with M. smegmatis ATCC700084, against B. subtilis ATCC6633 and in the data set on P. aeruginosa ATCC9027 was over 100 µM in each case. Also, the “activity against tested micro-organisms (in words)” value (shortened to “activity”) in data set [9] is “weak or no activity”.
`CC(=O)Nc1ccc2c(c1)C(=O)/C(=C/c1cccc(OC(C)C)c1)O2` [Compound 19, (Z)-N-(2-(3-isopropoxybenzylidene)-3-oxo-2,3-dihydrobenzofuran-5-yl)acetamide]: the MIC was over 100 µM against E. coli ATCC8739; over 100 µM in the data set on C. albicans DSM10697; over 100 µM against S. aureus ATCC6538P; over 100 µM in the data set with M. smegmatis ATCC700084; over 100 µM with B. subtilis ATCC6633; 25 µM (≈ 8.43 µg/mL) against P. aeruginosa ATCC9027. In data set [9], the “activity” value is “weak or no activity”.
Regarding `CC(C)Oc1ccccc1/C=C1\Oc2ccc(N)cc2C1=O` [Compound 21, (Z)-5-amino-2-(2-isopropoxybenzylidene)benzofuran-3(2H)-one], the MIC against E. coli ATCC8739, against C. albicans DSM10697, against S. aureus ATCC6538P, in the data set with M. smegmatis ATCC700084, in the data set on B. subtilis ATCC6633 and in the data set on P. aeruginosa ATCC9027 was over 100 µM in each case. Besides, in data set [9], the “activity” value is “weak or no activity”.
`CC(C)Oc1cccc(/C=C2\Oc3ccc(N)cc3C2=O)c1` [Compound 22, (Z)-5-amino-2-(3-isopropoxybenzylidene)benzofuran-3(2H)-one]: the melting point is 198.4 °C. This molecule also returned an MIC in the data set on E. coli ATCC8739 of over 100 µM. Moreover, the MIC against C. albicans DSM10697 was over 100 µM. The molecule further displayed an MIC against S. aureus ATCC6538P of over 100 µM. The minimal inhibitory concentration (MIC) against M. smegmatis ATCC700084 is over 100 µM. The MIC in the data set with B. subtilis ATCC6633 was over 100 µM. Besides, the “activity” value in data set [9] is reported as “weak or no activity”. Besides, in the data set on P. aeruginosa ATCC9027, the MIC was over 100 µM.
For the molecule `Nc1ccc2c(c1)C(=O)/C(=C/c1cccc(C(F)(F)F)c1)O2` [Compound 30, (Z)-5-amino-2-(3-(trifluoromethyl)benzylidene)benzofuran-3(2H)-one], the melting point is over 350 °C. The MIC in the data set on E. coli ATCC8739 was over 100 µM. In the data set with C. albicans DSM10697, this molecule registered a minimum inhibitory concentration (MIC) of over 100 µM. For the same molecule, the MIC in the data set with S. aureus ATCC6538P is over 100 µM. The MIC with M. smegmatis ATCC700084 was over 100 µM. The molecule also gave an MIC with B. subtilis ATCC6633 of over 100 µM. In the data set with P. aeruginosa ATCC9027, the MIC was over 100 µM.

The values are drawn from paper PMC11047580, “Design and Synthesis of Novel Amino and Acetamidoaurones with Antimicrobial Activities” (Antibiotics, 2024).
